The supplement of paper PMC11208160

assay: recombinant barcode read abundance after kanamycin selection (control-corrected) (log10(CPM+1)); higher = more efficient recombination; sequences stand for … in AGTGCAGAGAAAATCGGCCAGTTTTCTCTGCCTGCAGTCCGCATGCCGT…AGATTTATGCAGCGGACTGCCTTTCTCCCAAAGTGATAAACCGGACAGTATCATGGACCGGTTTTCCCGGTAATCCGTATTTGCAAGGTTGGTTTCACT; site = the 11-nt target
Method in brief: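 Recombination efficiency draws on barcodes counted at recombinant junctions in a pooled E. coli screen of targets paired with IS621 bridge RNA target-binding loops. The counts were converted to counts per million, averaged and corrected against the chloramphenicol/ampicillin LB agar control, then reported as log10(CPM+1). Selection plates held chloramphenicol/ampicillin/kanamycin with 0.1 mM IPTG, with two replicates per condition.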
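Further: IS621 recombinase and bridge RNA in Escherichia coli cells.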

Row | Sequence | recombinant barcode read abundance (log10)
1 | TCGTCACCTTGGGTTCTAACCTGTTGCAT (site CTAGTGGCTCG) | 0
2 | CTCCATGCTTGGGTTCTAACCTGTTGCCT (site CTCCATGCTAG) | 1.19
3 | AGGAGTCCTTGGGTTCTAACCTGTTGCGT (site AGCAGTCCTAC) | 0.182
4 | GGAAAGACTTGGGTTCTAACCTGTTGCCT (site GGAAAGACTAG) | 1.58
5 | CTCTCTTCTTGGGTTCTAACCTGTTGCCT (site CTCTCTTCTAG) | 0.114
6 | AAAGGGTCTTGGGTTCTAACCTGTTGCCT (site AGAGGGTCTAG) | 0.0828
7 | AAGTGGTCTTGGGTTCTAACCTGTTGCTA (site AAGTGGTCTTA) | 1.46
8 | TAATGATCTTGGGTTCTAACCTGTTGCCT (site TACTGATCTAG) | 0.0744
9 | ACCGTGACTTGGGTTCTAACCTGTTGCCT (site ACCGAGACTAG) | 0.0423
10 | TGGAGCCCTTGGGTTCTAACCTGTTGCAT (site TGGAGCCCTAT) | 0.211
11 | TAGGAAACTTGGGTTCTAACCTGTTGCGT (site TAGGAGACTAC) | 0.781
12 | CCTGAATCTTGGGTTCTAACCTGTTGCCT (site CCTGAGTCTAG) | 0.279
13 | AGGAAGACTTGGGTTCTAACCTGTTGCCG (site AGGAAGACTCC) | 0.883
14 | AGCCTCCCTTGGGTTCTAACCTGTTGCCA (site AGCCTCCCTTG) | 0.663
15 | TAGTCCTCTTGGGTTCTAACCTGTTGCTC (site TAGTCCTCTCA) | 0.0708
16 | ACAAAGACTTGGGTTCTAACCTGTTGCCT (site ACAAAGACTAG) | 0.847
17 | ACACTGGCTTGGGTTCTAACCTGTTGCCT (site ACTCTGGCTAG) | 0
18 | CATAGCGCTTGGGTTCTAACCTGTTGCCT (site AGCTTGCCTCT) | 0.0679
19 | TCGAACGCTTGGGTTCTAACCTGTTGCTT (site TCGAACGCTAA) | 0.135
20 | CTACGCTCTTGGGTTCTAACCTGTTGCGA (site CTACGCTCTTC) | 1.52
21 | TAGAACACTTGGGTTCTAACCTGTTGCTT (site TAGAACACTCA) | 0.0447
22 | CCTCGGCCTTGGGTTCTAACCTGTTGCAT (site CCACGGCCTAT) | 0.0708

Row | Sequence | recombinant barcode read abundance (log10)
23 | TCTTATTCTTGGGTTCTAACCTGTTGCGT (site TCTGATTCTAC) | 0.0368
24 | AAGCTCCCTTGGGTTCTAACCTGTTGCCT (site ACACTCCCTAG) | 0.242
25 | CATAGCTCTTGGGTTCTAACCTGTTGCCT (site GATAGCTCTAG) | 0.176
26 | GCATGGACTTGGGTTCTAACCTGTTGCAG (site GCACGGACTCT) | 1.92
27 | TGAGTTCCTTGGGTTCTAACCTGTTGCTT (site TGAGTCCCTAA) | 0.0401
28 | CGTATCTCTTGGGTTCTAACCTGTTGCCT (site CGTATCTCTAG) | 0.406
29 | ACCCAATCTTGGGTTCTAACCTGTTGCAC (site ACCCAATCTGT) | 1.94
30 | GAGTGTACTTGGGTTCTAACCTGTTGCAT (site GAGTGTACTAT) | 1.32
31 | CGAGGACCTTGGGTTCTAACCTGTTGCCT (site CGAGGACCTAG) | 2.3
32 | TAGTTACCTTGGGTTCTAACCTGTTGCCG (site TAGTTACCTCG) | 0.612
33 | TCTTGGACTTGGGTTCTAACCTGTTGCTC (site TCTTGGACTAA) | 0.0489
34 | TCCGAGACTTGGGTTCTAACCTGTTGCCC (site TCCGAGACTCG) | 0.338
35 | CAACCTTCTTGGGTTCTAACCTGTTGCCT (site CAACCTTCTAG) | 0.7
36 | CACACCACTTGGGTTCTAACCTGTTGCCT (site CACAACACTAG) | 0.243
37 | AGTCTAGCTTGGGTTCTAACCTGTTGCCA (site AGTCTAGCTAG) | 0.176
38 | ACAATGTCTTGGGTTCTAACCTGTTGCGG (site ACAATGTCTCC) | 1.27
39 | CCTCATACTTGGGTTCTAACCTGTTGCCA (site CCTCATACTTG) | 0.179
40 | ACGTCACCTTGGGTTCTAACCTGTTGCCT (site ACGTCACCTAG) | 0.536
41 | TCAAGGCCTTGGGTTCTAACCTGTTGCCT (site TCAAGGCCTAG) | 0.32
42 | AGAGAACCTTGGGTTCTAACCTGTTGCCT (site AGAGAACCTAG) | 2.33
43 | CTCCATCCTTGGGTTCTAACCTGTTGCCT (site CTCCATGCTAG) | 0.0326
44 | TGGTGTACTTGGGTTCTAACCTGTTGCCT (site TGGCGTACTAG) | 0.426

Row | Sequence | recombinant barcode read abundance (log10)
45 | ACCCTTACTTGGGTTCTAACCTGTTGCCT (site ATCCTTACTAG) | 0.142
46 | GGCGTCACTTGGGTTCTAACCTGTTGCCT (site GGCGTCACTAG) | 1.24
47 | CGTTATTCTTGGGTTCTAACCTGTTGCCT (site CGTTATTCTAG) | 0.0118
48 | CTGCGTGCTTGGGTTCTAACCTGTTGCCT (site CGGCGTGCTAG) | 0.176
49 | ACTCGGCCTTGGGTTCTAACCTGTTGCGA (site ACTGGGCCTTC) | 0.172
50 | GGAGGTCCTTGGGTTCTAACCTGTTGCCG (site GGAGGTCCTCG) | 1.79
51 | GCCAAGCCTTGGGTTCTAACCTGTTGCTG (site GCCAAGCCTCA) | 0.257
52 | ATAATACCTTGGGTTCTAACCTGTTGCCT (site ACAATACCTAG) | 0.135
53 | TAGTGGACTTGGGTTCTAACCTGTTGCCA (site TAGTGGACTTG) | 0.466
54 | GTGCAGACTTGGGTTCTAACCTGTTGCCT (site GTGCAGACTAG) | 2.05
55 | GATTCTCCTTGGGTTCTAACCTGTTGCTT (site GATTCTCCTAC) | 0.0499
56 | GACTCTCCTTGGGTTCTAACCTGTTGCAT (site GACTCTCCTAT) | 0.387
57 | AGTAGGCCTTGGGTTCTAACCTGTTGCGG (site AGTAGGCCTCC) | 1.4
58 | TTGTACCCTTGGGTTCTAACCTGTTGCCT (site TTCTTCCCTAG) | 0
59 | ATCCCATCTTGGGTTCTAACCTGTTGCCT (site ATGCCATCTAG) | 0.0333
60 | CTACATTCTTGGGTTCTAACCTGTTGCGT (site CTAAATACTAC) | 0.0752
61 | GTGCACACTTGGGTTCTAACCTGTTGCGG (site GTGCACTCTCC) | 0.322
62 | TATGGTACTTGGGTTCTAACCTGTTGCGT (site GGGATACCTTA) | 0.0757
63 | CTATGACCTTGGGTTCTAACCTGTTGCGT (site CTATGACCTAC) | 2.11
64 | GTGAGTCCTTGGGTTCTAACCTGTTGCGT (site GTGAGTCCTAC) | 2.61
65 | TAACTGTCTTGGGTTCTAACCTGTTGCTT (site TAACTGTCTAA) | 1.74
66 | CATAGCTCTTGGGTTCTAACCTGTTGCCT (site AATAGCTCTAG) | 0.527
